pIC50: −log10 of the molar value.
Test system: COLO320DM cells
Assay: COLO320DM proliferation assay (CellTiter-Glo)
Format: cell-based, human
Details: read-out: COLO320DM Proliferation Abs IC50
Protocol: COLO320DM proliferation assay IC50: In some embodiments, inhibition of cell proliferation by provided technologies were assessed using cell lines related to or from certain conditions, disorders or diseases. In some embodiments, cell proliferation was assessed in COLO320DM cells. In some embodiments, assessment was performed using the following procedure: On Day 1, cultured COLO320DM cells in a T75 flask were trypsinized in 3 mL of 0.250% trypsin/EDTA for 5 min and quenched with 10 mL RPMI-1640+4% HI FBS assay media. The cells were spun down at 1200 rpm for 5 min, the cell pellet collected and re-suspended at 5000 cells/mL in assay media. Using a Combi liquid handler, cells were dispensed (50 uL, 250 cells/well) into three 384 well plates. Plates were incubated at 37° C., 5% CO2 for 18-22 h. On day 2, compounds were added. A liquid handling system was used to prepare the compound dilution and dispense compound into assay plates. The compounds were serially diluted 1/2 in 90% DMSO to create a 7 point dose curve. From compound plate, 100 nL of compound were dispensed directly into wells of the assay plates to create a dose curve starting at 20 uM and ending at 313 nM. Assay plates were incubated at 37° C., 5% CO2 for 96 h. On day 6, assay plates were removed from the incubator and allowed to sit at room temperature for 30 min. Using a liquid handler, 20 uL of CellTiter Glo reagent was added to each well. The assay plates were shaken for 2 min and allowed to sit on the bench for 10-15 minutes. The assay plates were read using the CellTiter Glo protocol on a GloMax microplate reader, and the data analyzed using GraphPad Prism. Activities of various agents, including various stapled peptides in Table E2, were confirmed.
In some embodiments, an assessment was performed as follows. On day 0, cells were seeded in cell culture media (RPMI1640, 4% FBS) in a 96-well plate at desired density, typically at 1000 cells/well. On day 1, 10 mM agent stock solution (in DMSO) was first serially diluted into DMSO at 1:2 ratio, followed by diluting with cell culture media at two times of the final concentrations. Finally, agent-containing media were introduced to cell culture wells already having the same volume of cell culture media. Cells were incubated with agents for desired days before lysed for CellTiter-Glo® Luminescent Cell Viability Assay according to the manufacture instruction (Promega, G7570). Luminescent signal was obtained from a microplate reader (GloMax, Promega). Cell viability data was expressed as % relative to DMSO control wells.
Proliferation Assay. In some embodiments, various proliferation assays are utilized to characterize or assess provided technologies. In some embodiments, on day 0, cells were seeded in cell culture media in a 96-well plate at desired density, typically at 1000 cells/well. On day 1, 10 mM compound stock solution was first serially diluted into DMSO, followed by diluting with cell culture media at two times of the final concentrations. Finally, compound-containing media were introduced to cell culture wells already having the same volume of cell culture media. Cells were incubated with compounds for desired days before lysed for CTG according to the manufacture instruction (G7570, Promega). Luminescent signal was obtained from a microplate reader (GloMax, Promega).

| Substance | pIC50 |
| --- | --- |
| Ac-PL3-Asp-Ile-B5-Asp-3COOHF-Aib-Ala-Phe-sCH2S*3-PyrS2-Phe-34ClF-TriAzOrn*3-NH2 [I-1862] | ≥ 5.00 |
| Ac-PL3-Asp-Ile-B5-Asp-3COOHF-Ala-Ala-Phe-Lys*3-PyrS2-3Thi-BztA-GlnR*3-Ala-NH2 [I-970] | ≥ 5.00 |
| Ac-PL3-Asp-Ile-B5-Asp-3COOHF-Ala-Ala-Phe-TriAzLys*3-PyrS2-Phe-34ClF-sAla*3-NH2 [I-1863] | ≥ 5.00 |
| Ac-PL3-Asp-Ile-B5-Asp-3COOHF-Ala-Ala-Phe-TriAzLys*3-PyrS2-Phe-34ClF-sCH2S*3-NH2 [I-1865] | ≥ 5.00 |
| Ac-PL3-Asp-Ile-B5-Asp-3COOHF-Ala-Ala-Phe-sAla*3-PyrS2-Phe-34ClF-TriAzLys*3-NH2 [I-1864] | < 4.70 |
| Ac-PL3-Asp-Ile-B5-Asp-3COOHF-Ala-Ala-Phe-sCH2S*3-PyrS2-Phe-34ClF-TriAzLys*3-NH2 [I-1866] | 4.70 to 5.00 |
| Ac-PL3-Asp-Ile-B5-Asp-3COOHF-Ala-Ala-Phe-sCH2S*3-PyrS2-Phe-34ClF-TriAzOrn*3-NH2 [I-1869] | ≥ 5.00 |
| Ac-PL3-Asp-Ile-B5-Asp-3COOHF-CyLeu-Ala-Phe-Lys*3-PyrS2-3Thi-34ClF-GlnR*3-NH2 [I-1040] | ≥ 5.00 |
| Ac-PL3-Asp-Ile-B5-Asp-3COOHF-CyLeu-Ala-Phe-Lys*3-PyrS2-3Thi-34ClF-GlnR*3-Val-Thr-Ala-NH2 [I-1268] | ≥ 5.00 |
| Ac-PL3-Asp-Ile-B5-Asp-3COOHF-CyLeu-Ala-Phe-Lys*3-PyrS2-Phe-34ClF-GlnR*3-NH2 [I-1052] | ≥ 5.00 |
| Ac-PL3-Asp-Ile-B5-Asp-3COOHF-Phe-Ala-Phe-Lys*3-PyrS2-3Thi-34MeF-GlnR*3-NH2 [I-1102] | ≥ 5.00 |
| Ac-PL3-Asp-Ile-B5-Asp-3COOHF-Phe-Ala-Phe-Lys*3-PyrS2-Phe-34MeF-GlnR*3-Ala-NH2 [I-1106] | ≥ 5.00 |
| Ac-PL3-Asp-Ile-B5-Asp-3COOHF-Phe-Ala-Phe-Lys*3-PyrS2-Phe-34MeF-GlnR*3-NH2 [I-1107] | ≥ 5.00 |
| Ac-PL3-Asp-Npg-B5-3COOHF-Asp-Aib-Ala-Phe-Lys*3-PyrS2-3Thi-BztA-GlnR*3-Ala-NH2 [I-742] | < 4.70 |
| Ac-PL3-Asp-Npg-B5-Asp-3COOHF-Aib-Ala-Phe-Lys*3-PyrS2-2FF-34ClF-GlnR*3-NH2 [I-1537] | ≥ 5.00 |
| Ac-PL3-Asp-Npg-B5-Asp-3COOHF-Aib-Ala-Phe-Lys*3-PyrS2-2NH2F-BztA-GlnR*3-Ala-NH2 [I-1736] | ≥ 5.00 |
| Ac-PL3-Asp-Npg-B5-Asp-3COOHF-Aib-Ala-Phe-Lys*3-PyrS2-3Thi-34ClF-GlnR*3-Ala-Ala-Ala-[mPEG8]-Lys [I-1707] | ≥ 5.00 |
| Ac-PL3-Asp-Npg-B5-Asp-3COOHF-Aib-Ala-Phe-Lys*3-PyrS2-3Thi-34ClF-GlnR*3-Ala-Ala-Ala-[mPEG37]-Lys [I-1708] | ≥ 5.00 |
| Ac-PL3-Asp-Npg-B5-Asp-3COOHF-Aib-Ala-Phe-Lys*3-PyrS2-3Thi-34ClF-GlnR*3-NH2 [I-867] | ≥ 5.00 |
| Ac-PL3-Asp-Npg-B5-Asp-3COOHF-Aib-Ala-Phe-Lys*3-PyrS2-3Thi-34ClF-GlnR*3-Pro-NH2 [I-868] | ≥ 5.00 |
| Ac-PL3-Asp-Npg-B5-Asp-3COOHF-Aib-Ala-Phe-Lys*3-PyrS2-3Thi-34ClF-GlnR*3-Ser-NH2 [I-869] | ≥ 5.00 |
| Ac-PL3-Asp-Npg-B5-Asp-3COOHF-Aib-Ala-Phe-Lys*3-PyrS2-3Thi-BztA-GlnR*3-Ala-Ala-Arg-Ala-Ala-Ala-Ala-NH2 [I-1155] | ≥ 5.00 |
| Ac-PL3-Asp-Npg-B5-Asp-3COOHF-Aib-Ala-Phe-Lys*3-PyrS2-3Thi-BztA-GlnR*3-Ala-Ala-Arg-Ala-Ala-Ala-Arg-NH2 [I-1157] | ≥ 5.00 |
| Ac-PL3-Asp-Npg-B5-Asp-3COOHF-Aib-Ala-Phe-Lys*3-PyrS2-3Thi-BztA-GlnR*3-Ala-Ala-Leu-Leu-NH2 [I-806] | ≥ 5.00 |
| Ac-PL3-Asp-Npg-B5-Asp-3COOHF-Aib-Ala-Phe-Lys*3-PyrS2-3Thi-BztA-GlnR*3-Ala-Ala-Leu-NH2 [I-805] | ≥ 5.00 |

| Substance | pIC50 |
| --- | --- |
| Ac-PL3-Asp-Npg-B5-Asp-3COOHF-Aib-Ala-Phe-Lys*3-PyrS2-3Thi-BztA-GlnR*3-Ala-Ala-Lys-Ala-Ala-Ala-Lys-NH2 [I-1158] | ≥ 5.00 |
| Ac-PL3-Asp-Npg-B5-Asp-3COOHF-Aib-Ala-Phe-Lys*3-PyrS2-3Thi-BztA-GlnR*3-Ala-Ala-Lys-Leu-Pro-Val-nLeu-NH2 [I-815] | ≥ 5.00 |
| Ac-PL3-Asp-Npg-B5-Asp-3COOHF-Aib-Ala-Phe-Lys*3-PyrS2-3Thi-BztA-GlnR*3-Ala-Ala-Val-Pro-Ala-Leu-Arg-NH2 [I-817] | ≥ 5.00 |
| Ac-PL3-Asp-Npg-B5-Asp-3COOHF-Aib-Ala-Phe-Lys*3-PyrS2-3Thi-BztA-GlnR*3-Ala-Ala-Val-Pro-Thr-Leu-Lys-NH2 [I-813] | ≥ 5.00 |
| Ac-PL3-Asp-Npg-B5-Asp-3COOHF-Aib-Ala-Phe-Lys*3-PyrS2-3Thi-BztA-GlnR*3-Ala-Arg-Ala-Ala-Ala-Arg-Ala-NH2 [I-1156] | ≥ 5.00 |
| Ac-PL3-Asp-Npg-B5-Asp-3COOHF-Aib-Ala-Phe-Lys*3-PyrS2-3Thi-BztA-GlnR*3-Ala-Lys-Leu-Pro-Val-nLeu-NH2 [I-814] | ≥ 5.00 |
| Ac-PL3-Asp-Npg-B5-Asp-3COOHF-Aib-Ala-Phe-Lys*3-PyrS2-3Thi-BztA-GlnR*3-Ala-Val-Pro-Ala-Leu-Arg-NH2 [I-816] | ≥ 5.00 |
| Ac-PL3-Asp-Npg-B5-Asp-3COOHF-Aib-Ala-Phe-Lys*3-PyrS2-3Thi-BztA-GlnR*3-Ala-Val-Pro-Thr-Leu-Lys-NH2 [I-812] | ≥ 5.00 |
| Ac-PL3-Asp-Npg-B5-Asp-3COOHF-Aib-Ala-Phe-Lys*3-PyrS2-3Thi-BztA-GlnR*3-Leu-Ser-NH2 [I-785] | ≥ 5.00 |
| Ac-PL3-Asp-Npg-B5-Asp-3COOHF-Aib-Ala-Phe-Lys*3-PyrS2-3Thi-BztA-GlnR*3-Pro-NH2 [I-719] | ≥ 5.00 |
| Ac-PL3-Asp-Npg-B5-Asp-3COOHF-Aib-Ala-Phe-Lys*3-PyrS2-3Thi-BztA-GlnR*3-Ser-NH2 [I-721] | ≥ 5.00 |
| Ac-PL3-Asp-Npg-B5-Asp-3COOHF-Aib-Ala-Phe-Lys*3-PyrS2-3Thi-BztA-GlnR*3-[mPEG4]Lys-NH2 [I-1181] | < 4.70 |
| Ac-PL3-Asp-Npg-B5-Asp-3COOHF-Aib-Ala-Phe-Lys*3-PyrS2-3Thi-BztA-GlnR*3-[mPEG8]Lys-NH2 [I-1182] | < 4.70 |
| Ac-PL3-Asp-Npg-B5-Asp-3COOHF-Aib-Ala-Phe-Lys*3-PyrS2-3Thi-BztA-GlnR*3-[mPEG16]Lys-NH2 [I-1183] | ≥ 5.00 |
| Ac-PL3-Asp-Npg-B5-Asp-3COOHF-Aib-Ala-Phe-Lys*3-PyrS2-3Thi-BztA-GlnR*3-dPro-NH2 [I-720] | ≥ 5.00 |
| Ac-PL3-Asp-Npg-B5-Asp-3COOHF-Aib-Ala-Phe-Lys*3-PyrS2-3Thi-BztA-hGlnR*3-NH2 [I-786] | ≥ 5.00 |
| Ac-PL3-Asp-Npg-B5-Asp-3COOHF-Aib-Ala-Phe-Lys*3-PyrS2-Phe-34ClF-GlnR*3-NH2 [I-871] | ≥ 5.00 |
| Ac-PL3-Asp-Npg-B5-Asp-3COOHF-Aib-Ala-Phe-Lys*3-PyrS2-Phe-34ClF-GlnR*3-Pro-NH2 [I-872] | ≥ 5.00 |
| Ac-PL3-Asp-Npg-B5-Asp-3COOHF-Aib-Ala-Phe-Lys*3-PyrS2-Phe-34MeF-GlnR*3-NH2 [I-1103] | ≥ 5.00 |
| Ac-PL3-Asp-Npg-B5-Asp-3COOHF-Aib-Ala-Phe-Lys*3-PyrS2-[2PyAc]2NH2F-BztA-GlnR*3-Ala-NH2 [I-1740] | ≥ 5.00 |
| Ac-PL3-Asp-Npg-B5-Asp-3COOHF-Aib-Ala-Phe-Lys*3-PyrS2-[2PyzCO]2NH2F-BztA-GlnR*3-Ala-NH2 [I-1755] | < 4.70 |
| Ac-PL3-Asp-Npg-B5-Asp-3COOHF-Aib-Ala-Phe-Lys*3-PyrS2-[3PyPrpc]2NH2F-BztA-GlnR*3-Ala-NH2 [I-1742] | 4.70 to 5.00 |
| Ac-PL3-Asp-Npg-B5-Asp-3COOHF-Aib-Ala-Phe-Lys*3-PyrS2-[4PyPrpc]2NH2F-BztA-GlnR*3-Ala-NH2 [I-1743] | 4.70 to 5.00 |
| Ac-PL3-Asp-Npg-B5-Asp-3COOHF-Aib-Ala-Phe-Lys*3-PyrS2-[15PyraPy]2NH2F-BztA-GlnR*3-Ala-NH2 [I-1752] | ≥ 5.00 |

— patent US20240360179A1, “STAPLED PEPTIDES AND METHODS THEREOF” (FOG PHARMACEUTICALS, INC., priority 2021, published 2024)
